Measured values from ChEMBL document CHEMBL3044689, “Synthesis and Rice-Blast Control Activity of Sulfonylamidines” (1992).

What was measured:
Format in all cases: functional
Pyricularia oryzae [1] = experiment: Antifungal activity against Magnaporthe oryzae infected on compound treated rice seedlings at 7.8 ppm incubated for 24 hr in moist chamber followed by incubation for 5 days in greenhouse conditions
Pyricularia oryzae [2] = experiment: Antifungal activity against Magnaporthe oryzae infected on compound treated rice seedlings at 31.3 ppm incubated for 24 hr in moist chamber followed by incubation for 5 days in greenhouse conditions
Pyricularia oryzae [3] = experiment: Antifungal activity against Magnaporthe oryzae infected on compound treated rice seedlings at 125 ppm incubated for 24 hr in moist chamber followed by incubation for 5 days in greenhouse conditions
Pyricularia oryzae [4] = experiment: Antifungal activity against Magnaporthe oryzae infected on compound treated rice seedlings at 500 ppm incubated for 24 hr in moist chamber followed by incubation for 5 days in greenhouse conditions

| SMILES | Activity (Pyricularia oryzae [4]) | also measured |
| --- | --- | --- |
| CCSC1=NS(=O)(=O)c2ccccc2N1C | 90% | Activity (Pyricularia oryzae [1]): 0%; Activity (Pyricularia oryzae [2]): 30%; Activity (Pyricularia oryzae [3]): 70% |
| Cc1ccc(S(=O)(=O)/N=C(/c2ccccc2)N(C)C)cc1 | 30% | – |
| Cc1ccc(/C(=N/S(=O)(=O)c2ccc(C)cc2)N(C)C)cc1 | 70% | – |
| COc1ccc(/C(=N/S(=O)(=O)c2ccc(C)cc2)N(C)C)cc1 | 70% | – |
| Cc1ccc(S(=O)(=O)/N=C(/c2ccc(N(C)C)cc2)N(C)C)cc1 | 0% | – |
| Cc1ccc(S(=O)(=O)/N=C(/c2ccc(Cl)cc2)N(C)C)cc1 | 0% | – |
| Cc1ccc(S(=O)(=O)/N=C(/c2ccc([N+](=O)[O-])cc2)N(C)C)cc1 | 0% | – |
| Cc1ccc(S(=O)(=O)/N=C(/c2ccc(Cl)c(Cl)c2)N(C)C)cc1 | 50% | – |
| COC(=O)c1ccccc1/C(=C/S(=O)(=O)c1ccc(C)cc1)N(C)C | 0% | – |
| C/C(=N/S(=O)(=O)c1ccc(C)cc1)N(C)C | 70% | – |
| CCC/C(=N/S(=O)(=O)c1ccc(C)cc1)N(C)C | 70% | – |
| C/C=C/C(=N/S(=O)(=O)c1ccc(C)cc1)N(C)C | 30% | – |
| Cc1ccc(S(=O)(=O)/N=C(/CC(C)Br)N(C)C)cc1 (stereo not drawn) | 30% | – |
| CCCCCC/C(=N/S(=O)(=O)c1ccc(C)cc1)N(C)C | 70% | – |
| Cc1ccc(S(=O)(=O)/N=C(/C2CCCCC2)N(C)C)cc1 | 50% | – |
| CO/C(=N/S(=O)(=O)c1ccc(C)cc1)N(C)C | 0% | – |
| CS/C(=N/S(=O)(=O)c1ccc(C)cc1)N(C)C | 30% | – |
| Cc1ccc(S(=O)(=O)N=C(N(C)C)N(C)C)cc1 | 30% | – |
| CCOC(=O)/C(=N/S(=O)(=O)c1ccc(C)cc1)N(C)C | 50% | – |
| CCN(CC)/C(=N\S(=O)(=O)c1ccc(C)cc1)C(C)C | 0% | – |
| CCN(CC)/C(CC(C)C)=N\S(=O)(=O)c1ccc(C)cc1 | 0% | – |
| CCN(CC)/C(=N\S(=O)(=O)c1ccc(C)cc1)C(C)(C)C | 0% | – |

| SMILES | Activity (Pyricularia oryzae [4]) | also measured |
| --- | --- | --- |
| CCCC/C(=N/S(=O)(=O)c1ccc(C)cc1)N(CC)CC | 70% | – |
| CCCCC/C(=N/S(=O)(=O)c1ccc(C)cc1)N(CC)CC | 90% | Activity (Pyricularia oryzae [1]): 30%; Activity (Pyricularia oryzae [2]): 70%; Activity (Pyricularia oryzae [3]): 90% |
| CCCCCC/C(=N/S(=O)(=O)c1ccc(C)cc1)N(CC)CC | 97% | Activity (Pyricularia oryzae [1]): 50%; Activity (Pyricularia oryzae [2]): 90%; Activity (Pyricularia oryzae [3]): 90% |
| CCN(CC)/C(=N\S(=O)(=O)c1ccc(C)cc1)C1CCCCC1 | 30% | – |
| CCCCCCC/C(=N/S(=O)(=O)c1ccc(C)cc1)N(CC)CC | 90% | Activity (Pyricularia oryzae [1]): 30%; Activity (Pyricularia oryzae [2]): 70%; Activity (Pyricularia oryzae [3]): 90% |
| CCCCCCCC/C(=N/S(=O)(=O)c1ccc(C)cc1)N(CC)CC | 70% | – |
| CCCCCCCCC/C(=N/S(=O)(=O)c1ccc(C)cc1)N(CC)CC | 50% | – |
| CCCCCCCCCC/C(=N/S(=O)(=O)c1ccc(C)cc1)N(CC)CC | 50% | – |
| CCCCCCCCCCC/C(=N/S(=O)(=O)c1ccc(C)cc1)N(CC)CC | 50% | – |
| CCCCCCCCCCCCC/C(=N/S(=O)(=O)c1ccc(C)cc1)N(CC)CC | 30% | – |
| CCCCCCCCCCCCCCC/C(=N/S(=O)(=O)c1ccc(C)cc1)N(CC)CC | 0% | – |
| CCCCCC/C(=N/S(=O)(=O)c1ccc(C)cc1)N(CCC)CCC | 50% | – |
| CCCCCC/C(=N/S(=O)(=O)c1ccc(C)cc1)N(CCCC)CCCC | 0% | – |
| CCCCCC/C(=N/S(=O)(=O)c1ccc(C)cc1)N1CCCCC1 | 50% | – |
| CCCCCC/C(=N/S(=O)(=O)c1ccc(C)cc1)N1CCCC1 | 30% | – |
| CCCCCC/C(=N/S(=O)(=O)c1ccc(C)cc1)N1CCN(C)CC1 | 30% | – |
| CCCCCC/C(=N/S(=O)(=O)c1ccc(C)cc1)N1CCOCC1 | 30% | – |
| CCCCCC/C(=N/S(=O)(=O)c1ccc(Cl)cc1)N(CC)CC | 30% | – |
| CCCCCC/C(=N/S(=O)(=O)c1ccccc1Cl)N(CC)CC | 0% | – |
| CCCCCC/C(=N/S(=O)(=O)c1ccccc1)N(CC)CC | 30% | – |
| CC(C)OP(=O)(OC(C)C)SCc1ccccc1 [IPROBENFOS] | 70% | Activity (Pyricularia oryzae [1]): 0%; Activity (Pyricularia oryzae [2]): 30%; Activity (Pyricularia oryzae [3]): 50% |
